Measured values reported in ChEMBL document CHEMBL3868619, “Synthesis and biological assessment of novel N-(hydroxy/methoxy)alkyl β-enaminone curcuminoids” (Bioorg Med Chem Lett, 2016).
Values after ≈ are worked out from the molar mass of the structure shown. Active and inactive are the calls of the source. No cut-off for these calls is given here.

What was measured:
[1] = Solubility of the compound in dimethyl sulfoxide; type: physicochemical
Caco-2 [2] = test: Induction of ROS generation in human Caco2 cells at 10 uM using DCFH-DA by fluorescence assay relative to control; type: functional
HepG2 [3] = test: Induction of ROS generation in human HepG2 cells at 1 uM using DCFH-DA by fluorescence assay relative to control; type: functional
HT-29 [4] = test: Induction of ROS generation in human HT-29 cells at 10 uM using DCFH-DA by fluorescence assay relative to control; type: functional
[5] = Cytotoxicity against human HT-29 cells assessed as decrease in cell viability after 48 hrs by MTT assay; type: functional, cell-based; conditions: HT-29, 48 h
[6] = Aqueous solubility of the compound in sodium phosphate buffer at pH 6.8 after 24 hrs by shake flask method; type: physicochemical
HepG2 [7] = test: Induction of ROS generation in human HepG2 cells at 10 uM using DCFH-DA by fluorescence assay relative to control; type: functional
EA.hy 926 [8] = test: Induction of ROS generation in human EAhy926 cells at 10 uM using DCFH-DA by fluorescence assay relative to control; type: functional
[9] = Cytotoxicity against human EAhy926 cells assessed as cell viability at 100 uM after 48 hrs by MTT assay relative to control; type: toxicity, cell-based, EA.hy 926; conditions: EA.hy926 cells, read-out: Activity
EA.hy 926 [10] = test: Induction of ROS generation in human EAhy926 cells at 1 uM using DCFH-DA by fluorescence assay relative to control; type: functional
[11] = Chemical stability of the compound sodium phosphate buffer at pH 6.8 after 24 hrs by LC-MS analysis; type: physicochemical; conditions: pH 6.8, 24 h
[12] = Antioxidant activity assessed as DPPH radical scavenging activity after 30 mins by spectrophotometric analysis; type: functional
[13] = Induction of ROS generation in CHOK1 cells at 1 uM using DCFH-DA by fluorescence assay relative to control; type: cell-based, Cricetulus griseus; conditions: chinese hamster, cho-k1, 1 µM
[14] = Solubility of the compound in ethanol; type: physicochemical
[15] = Induction of ROS generation in CHOK1 cells at 10 uM using DCFH-DA by fluorescence assay relative to control; type: cell-based, Cricetulus griseus; conditions: chinese hamster, cho-k1, 10 µM
HT-29 [16] = test: Induction of ROS generation in human HT-29 cells at 1 uM using DCFH-DA by fluorescence assay relative to control; type: functional
[17] = Solubility of the compound in acetone; type: physicochemical
[18] = Solubility of the compound in ethyl acetate; type: physicochemical
[19] = Cytotoxicity against human Caco2 cells assessed as decrease in cell viability after 48 hrs by MTT assay; type: functional, cell-based; conditions: Caco-2, 48 h
[20] = Cytotoxicity against human HepG2 cells assessed as decrease in cell viability after 48 hrs by MTT assay; type: functional, cell-based; conditions: HepG2, 48 h
[21] = Cytotoxicity against CHOK1 cells assessed as decrease in cell viability after 48 hrs by MTT assay; type: toxicity, cell-based, Cricetulus griseus; conditions: Chinese hamster, CHO-K1 cells
Caco-2 [22] = test: Induction of ROS generation in human Caco2 cells at 1 uM using DCFH-DA by fluorescence assay relative to control; type: functional
[23] = Solubility of the compound in 2-methyl-THF; type: physicochemical
[24] = Cytotoxicity against human EAhy926 cells assessed as decrease in cell viability after 48 hrs by MTT assay; type: toxicity, cell-based, EA.hy 926; conditions: EA.hy926 cells
[25] = Aqueous solubility of the compound in sodium phosphate buffer at pH 6.8 after 90 mins by shake flask method; type: physicochemical
[26] = Solubility of the compound in methanol; type: physicochemical
[27] = Solubility of the compound in dimethylformamide; type: physicochemical
HepG2 [28] = test: Cytotoxicity against human HepG2 cells assessed as change in cell morphology after 48 hrs; type: functional, cell-based

| Compound | solubility [1] | Activity (Caco-2 [2]) [%] | Activity (HepG2 [3]) [%] | Activity (HT-29 [4]) [%] | IC50 [5] [µM] | solubility thermodynamic at 24 h [6] [µM] | Activity (HepG2 [7]) [%] | Activity (EA.hy 926 [8]) [%] | Activity (EA.hy 926 [10]) [%] | Stability [11] | EC50 [12] [µM] | Activity [13] [%] | solubility [14] | Activity [15] [%] | Activity (HT-29 [16]) [%] | solubility [17] | IC50 [19] [µM] | IC50 [20] [µM] | IC50 at 48 h [21] [µM] | IC50 at 48 h [24] [µM] | further results |
| --- | --- | --- | --- | --- | --- | --- | --- | --- | --- | --- | --- | --- | --- | --- | --- | --- | --- | --- | --- | --- | --- |
| COCCNC(=C\C(=O)/C=C/c1ccc(O)c(OC)c1)/C=C/c1ccc(O)c(OC)c1 | Soluble | 75.6 | 83.8 | 92.3 | > 100 | 12.7 (≈ 5.4 µg/mL) | 66.6 | 121.3 | 126.2 | Stable | 27.3 | 94 | Soluble | 84.4 | 86.5 | Insoluble | > 100 | > 100 | 63 | ≥ 100 | viability at 48 h, 100 µM [9]: 50.9%; solubility [18]: Insoluble; Activity (Caco-2 [22]): 105%; solubility [23]: Insoluble; solubility thermodynamic at 1.5 h [25]: 16.7 µM (≈ 7.1 µg/mL); solubility [26]: Soluble; solubility [27]: Soluble |
| COCCCNC(=C\C(=O)/C=C/c1ccc(O)cc1)/C=C/c1ccc(O)cc1 | Soluble | 89 | 79.5 | 95.7 | 51.9 | 14.8 (≈ 5.63 µg/mL) | 71.6 | 98.7 | 107.6 | Stable | 130 | 99.8 | Soluble | 97 | 98 | Insoluble | 24 | 61.9 | 44.9 | 81.9 | solubility [18]: Insoluble; Activity (Caco-2 [22]): 97%; solubility [23]: Insoluble; solubility thermodynamic at 1.5 h [25]: 10.4 µM (≈ 3.97 µg/mL); solubility [26]: Soluble; solubility [27]: Soluble |
| O=C(/C=C(/C=C/c1ccc(O)cc1)NCCO)/C=C/c1ccc(O)cc1 | Soluble | 87.1 | 82.7 | 90.6 | 66.2 | 37.9 (≈ 13.3 µg/mL) | 83.6 | 99.3 | 108 | Stable | > 200 | 93.4 | Soluble | 85.7 | 94.9 | Insoluble | 57.9 | 48.4 | 66 | 50.2 | solubility [18]: Insoluble; Activity (Caco-2 [22]): 98.1%; solubility [23]: Insoluble; solubility thermodynamic at 1.5 h [25]: 38.7 µM (≈ 13.6 µg/mL); solubility [26]: Soluble; solubility [27]: Soluble |
| O=C(/C=C(/C=C/c1ccc(O)cc1)NCCCO)/C=C/c1ccc(O)cc1 | Soluble | 91.7 | 91.3 | 96.9 | 58.9 | 128 (≈ 46.9 µg/mL) | 88.7 | 109.9 | 93.3 | Stable | 154 | 86.4 | Soluble | 80.5 | 92.5 | Insoluble | 31.6 | 54.1 | 39.1 | 57.3 | solubility [18]: Insoluble; Activity (Caco-2 [22]): 94.1%; solubility [23]: Insoluble; solubility thermodynamic at 1.5 h [25]: 137 µM (≈ 49.9 µg/mL); solubility [26]: Soluble; solubility [27]: Soluble |
| COc1cccc2c1C(=O)c1c(O)c3c(c(O)c1C2=O)C[C@@](O)(C(=O)CO)C[C@@H]3O[C@H]1C[C@H](N)[C@H](O)[C@H](C)O1 [DOXORUBICIN] | – | – | – | – | 7.4 | – | – | – | – | – | – | – | – | – | – | – | 9.4 | > 75 | 4.2 | 4.2 | Activity (HepG2 [28]): Active |
